Experimental data: patent US8198450B2, “Quinolinone derivatives and their pharmaceutical compositions” (Novartis AG, priority 2006, dated 2012)

Columns and labels:
[1] = equilibration in solvents, crystalline form; format: physicochemical; details: 1 day at 25° C. in water, ethanol and isopropanol
[2] = stability of the salt; format: physicochemical; details: before and after micronisation, with or without excipients, with and without moisture
[3] = solubility in ethanol; format: physicochemical
[4] = hygroscopicity; format: physicochemical
[5] = clinic: treatment of asthma and chronic obstructive pulmonary disease; format: in vivo

change of crystalline form after equilibration [1]	stability [2]	solubility in ethanol [3]	hygroscopicity [4]	cough exhibited by certain patients on administration ([5]; particularly first administration)	SMILES	tested in the clinic for the treatment of asthma and chronic obstructive pulmonary disease ([5]; clinic)
no change of crystalline form	especially stable	low	substantially not hydroscopic		CC(=O)O.CCc1cc2c(cc1CC)CC(NC[C@H](O)c1ccc(O)c3[nH]c(=O)ccc13)C2 [Example 15, (R)-5-[2-(5,6-diethyl-indan-2-ylamino)-1-hydroxyethyl]-8-hydroxy-1H-quinolin-2-one acetate]	
				cough	CCc1cc2c(cc1CC)CC(NC[C@H](O)c1ccc(O)c3[nH]c(=O)ccc13)C2.O=C(O)/C=C\C(=O)O [(R)-5-[2-(5,6-diethyl-indan-2-ylamino)-1-hydroxyethyl]-8-hydroxy-1H-quinolin-2-one maleate]	tested favourably
no change of crystalline form	especially stable	low	substantially not hydroscopic		CCc1cc2c(cc1CC)CC(NC[C@H](O)c1ccc(O)c3[nH]c(=O)ccc13)C2 [Example 12, (R)-5-[2-(5,6-diethyl-indan-2-ylamino)-1-hydroxyethyl]-8-hydroxy-1H-quinolin-2-one glycolate]	
no change of crystalline form	especially stable	low	substantially not hydroscopic		CCc1cc2c(cc1CC)CC(NC[C@H](O)c1ccc(O)c3[nH]c(=O)ccc13)C2.O=C(O)CC(=O)O [Example 21, (R)-5-[2-(5,6-diethyl-indan-2-ylamino)-1-hydroxyethyl]-8-hydroxy-1H-quinolin-2-one hydrogen malonate]	
